Measurements taken from paper PMC8766756, “Insights on Cancer Cell Inhibition, Subcellular Activities, and Kinase Profile of Phenylacetamides Pending 1H-Imidazol-5-One Variants” (Frontiers in Pharmacology, 2022).

Assays:
bovine brain tubulin = test: Tubulin polymerization assay (cell-free); assay type: biochemical; details: 10 and 30 µM, compared with KX2-391 (10 µM)
Method: KX2-391 (KX-01), the prototype of KIM-161, is a known powerful tubulin polymerization inhibitor. Consequently, we investigated its effect on tubulin polymerization using a cell-free assay that also included paclitaxel as another positive reference that affects tubulin function through stabilization of tubulin polymers (Figure 9).
FIGURE 9 Tubulin polymerization assay for KIM-161 at 10 and 30 µM compared to paclitaxel (10 µM) and KX2-391 (10 µM) as positive controls. The negative control (vehicle) contained DMSO (1% v/v). The effect on the tubulin assembly was monitored turbidometrically at 340 nm every 30 s for 60 min at 37°C. Fold inhibition of tubulin polymerization was calculated using the V max value for each reaction. The results represent the mean for three separate experiments.
The assembly of purified bovine tubulin was monitored using a kit BK006 purchased from Cytoskeleton Inc. (Denver, CO, USA). The assay was carried out in accordance with the manufacturer's instructions in the tubulin polymerization assay kit manual using the standard assay conditions. The values reported represent the average values from two independent assays. […] Therefore, tubulin assembly was monitored turbidimetrically at 340 nm at 37°C in a Spectramax 340 PC spectrophotometer (Molecular Devices, Sunnyvale, CA, USA). The absorbance was measured at 30-s intervals for 60 min.

[1] = Binding to mouse plasma proteins (equilibrium dialysis); assay type: in vitro ADME; details: pH 7.4, CD-1 mouse plasma, equilibrium dialysis 22 h, read-out: Mouse plasma protein binding (% free at 37°C)
Method: The equilibrium dialysis method for determining plasma protein binding was performed as previously described using 96-well dialyzer plates with a molecular weight cutoff of 5K (Harvard Apparatus, Holliston, MA) and a dual-plate rotator set to maximum speed (Harvard Apparatus, Holliston, MA) located in a 37°C incubator with a 10% CO2 atmospheric environment. The assays were run in triplicate. KIM-161 was added to CD-1 mouse plasma (Innovative Research, Novi, MI, sodium heparin added as anticoagulant; pH adjusted to 7.4 with 2N HCl on the day of use) in DMSO (final DMSO concentration 0.4%) to give a 10 µM final concentration. The drug/plasma mixture and buffer (Dulbecco's PBS 1X without calcium and magnesium, Mediatech, Inc., Herndon, VA) were placed in their respective sides; the wells were capped; and the plate was placed in the rotator and allowed to dialyze for 22 h. Following dialysis, aliquots of the buffer and plasma mixture were removed and mixed with aliquots of the opposite matrix in 96-well deep plates. The concentrations of the analytes from each side of the dialysis plate were determined by LC/MS/MS on a Waters Xevo TQ instrument as described above using positive electrospray ionization. […] The fraction unbound was calculated by dividing the drug concentration in the buffer side of the dialysis plate by the drug concentration in the plasma side.

[2] = Stability in mouse plasma; assay type: in vitro ADME; details: 1 µM, t1/2; listed as KIM-161
Method: The assay was conducted at 37°C in triplicate. The test compound KIM-161 or procaine (the positive control) was tested at a final concentration of 1 µM in either 2.5% DMSO/CD-1 mouse plasma (Innovative Research, Novi, MI; sodium heparin added as anticoagulant; pH adjusted to 7.4 with 2N HCl on the day of use) or 2.5% DMSO/PBS (pH 7.4; 136.9 mM NaCl, 2.68 mM KCl, 8.1 mM Na2HPO4, 1.47 mM KH2PO4, 0.9 mM CaCl2, and 0.49 mM MgCl2). At seven time points, the reaction mixture aliquots were transferred to 96-shallow-well stop plates on ice containing acetonitrile with 0.1 µM propafenone. Samples were analyzed by LC/MS/MS on a Waters Xevo TQ instrument as described above using positive electrospray ionization. The assay acceptance criterion was 20% for all standards and 25% for the LLOQ. GraphPad® Prism v.5.04 was used for nonlinear fitting of data to generate t1/2 values.

[3] = target: T1, human cytochrome P450 2C9 (Homo sapiens, UniProt P11712); test: Inhibition assay of human CYP450 enzymes; assay type: in vitro ADME; details: fluorescent substrate
T1 construct: purchased Fisher Scientific, Waltham, MA; host or cells: insect cells (Supersomes)
T1 sequence (P11712 whole entry): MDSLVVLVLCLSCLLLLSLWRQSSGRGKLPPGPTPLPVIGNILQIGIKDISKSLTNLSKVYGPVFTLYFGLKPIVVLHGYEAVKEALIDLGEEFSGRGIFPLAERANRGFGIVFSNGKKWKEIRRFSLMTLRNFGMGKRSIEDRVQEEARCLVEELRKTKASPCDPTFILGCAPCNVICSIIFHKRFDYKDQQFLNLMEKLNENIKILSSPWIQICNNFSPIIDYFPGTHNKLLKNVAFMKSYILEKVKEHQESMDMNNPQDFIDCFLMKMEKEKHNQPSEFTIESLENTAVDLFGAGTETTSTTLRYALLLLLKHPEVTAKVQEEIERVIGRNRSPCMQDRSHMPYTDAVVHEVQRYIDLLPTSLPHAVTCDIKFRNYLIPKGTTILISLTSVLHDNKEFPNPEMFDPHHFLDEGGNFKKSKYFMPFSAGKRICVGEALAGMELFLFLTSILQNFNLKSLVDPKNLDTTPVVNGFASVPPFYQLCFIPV
Method: (§1) KIM-161 was assessed for its ability to inhibit the three major human CYP450 enzymes: 3A4, 2D6, and 2C9. The assays were run in triplicate. The expressed enzymes in insect Supersomes (Fisher Scientific, Waltham, MA) were used to minimize nonspecific binding and membrane partitioning issues ([McMasters et al., 2007]). The 3A4 assay uses testosterone as a substrate, and the analysis was performed by LC/MS/MS on a Waters Xevo TQ instrument as described above, using positive electrospray ionization. The assay acceptance criterion was 20% for all standards and 25% for the LLOQ. The 2D6 and 2C9 assays use fluorescent substrates (3-[2-(N,N-diethylamino)ethyl]-7-methoxy-4-methylcoumarin for 2D6; 7-methoxy-4-(trifluromethyl)coumarin for 2C9) and were analyzed on an Envision plate reader. GraphPad® Prism v.5.04 was used for nonlinear fitting of data to generate IC50 values.

[4] = target: T2, human cytochrome P450 2D6 (Homo sapiens, UniProt P10635); test: Inhibition assay of human CYP450 enzymes; assay type: in vitro ADME; details: fluorescent substrate
T2 construct: purchased Fisher Scientific, Waltham, MA; host or cells: insect cells (Supersomes)
T2 sequence (P10635 whole entry): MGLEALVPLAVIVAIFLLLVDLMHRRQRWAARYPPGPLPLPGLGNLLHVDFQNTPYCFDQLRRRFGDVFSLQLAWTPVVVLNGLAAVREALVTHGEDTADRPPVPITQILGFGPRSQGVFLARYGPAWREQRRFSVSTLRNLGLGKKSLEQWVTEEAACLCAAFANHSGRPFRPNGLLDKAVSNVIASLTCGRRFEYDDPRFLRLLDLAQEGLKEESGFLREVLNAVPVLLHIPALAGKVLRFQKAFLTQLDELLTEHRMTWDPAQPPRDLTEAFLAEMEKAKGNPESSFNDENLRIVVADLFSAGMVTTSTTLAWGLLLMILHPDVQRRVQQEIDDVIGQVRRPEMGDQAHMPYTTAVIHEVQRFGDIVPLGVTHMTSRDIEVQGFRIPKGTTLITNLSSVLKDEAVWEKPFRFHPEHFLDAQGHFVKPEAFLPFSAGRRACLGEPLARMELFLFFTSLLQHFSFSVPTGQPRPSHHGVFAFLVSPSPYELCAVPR
Method: as §1

[5] = target: T3, human cytochrome P450 3A4 (Homo sapiens, UniProt P08684); test: Inhibition assay of human CYP450 enzymes; assay type: in vitro ADME; details: testosterone substrate
T3 construct: purchased Fisher Scientific, Waltham, MA; host or cells: insect cells (Supersomes)
T3 sequence (P08684 whole entry): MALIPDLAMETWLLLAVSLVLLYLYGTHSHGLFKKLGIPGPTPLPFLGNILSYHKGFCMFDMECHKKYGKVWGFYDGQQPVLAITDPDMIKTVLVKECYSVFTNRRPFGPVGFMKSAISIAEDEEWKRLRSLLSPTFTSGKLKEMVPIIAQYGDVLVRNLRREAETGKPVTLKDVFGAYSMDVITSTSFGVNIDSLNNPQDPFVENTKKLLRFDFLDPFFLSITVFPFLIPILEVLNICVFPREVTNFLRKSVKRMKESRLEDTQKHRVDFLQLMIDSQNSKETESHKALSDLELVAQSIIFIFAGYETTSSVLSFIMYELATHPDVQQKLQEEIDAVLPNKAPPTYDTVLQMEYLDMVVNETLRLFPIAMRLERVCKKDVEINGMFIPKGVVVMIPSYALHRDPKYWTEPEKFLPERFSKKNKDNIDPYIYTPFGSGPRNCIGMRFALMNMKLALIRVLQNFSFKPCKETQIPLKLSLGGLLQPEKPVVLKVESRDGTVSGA
Method: as §1

COc1ccc(/C=C2\N=C(C)N(c3ccc(CC(=O)NCc4ccccc4)cc3)C2=O)cc1 [Compound 4c, (Z)-N-Benzyl-2-(4-(4-(4-methoxybenzylidene)-2-methyl-5-oxo-4,5-dihydro-1H-imidazol-1-yl)phenyl)acetamide]
tubulin polymerization inhibition (bovine brain tubulin): much weaker tubulin polymerization inhibition than KX2-391
fraction unbound at 22 h, 10 µM [1]: 0.05
Stability in mouse plasma at 37°C [2]: >300 min
IC50 [3]: ≥ 10 µM
IC50 [4]: ≥ 10 µM
IC50 [5]: ≥ 10 µM
